“And” between values parts separate entries of the source, which are not always exact repeats. Equal entries are not always repeated. Structures can show the parent of a compound that is named as a salt. Where two headings read alike, the source gives them in different places.
What was measured:
[1] = Cytotoxicity in transfected cells, cell viability with CellTiter-Glo; conditions: human
Procedure: (§1) The antiviral activity of 7-nitro-8-hydroxyquinoline derivatives against human papillomavirus (HPV) was tested and evaluated using transient transfection assays. This evaluation system included plasmids expressing viral helicase E1 and replication origin binding protein E2, plasmids containing NanoLuc gene of which the expression was driven by a TK promoter (Promega company), and replication origin sequences of human papillomavirus strains listed below. […] The positions of replication origin sequences of the three NanoLuc reporter plasmids were 7825-7993:1-99, 7662-7901:1-99, and 7740-7837:1-102 for HPV-11 (NCBI Accession No. HE611260.1), HPV-16 (NCBI Accession No. KP212151.1), and HPV-18 (NCBI Accession No. KC470230.1), respectively. The positions of E1 open reading frame (ORF) sequences corresponding to HPV-11, HPV-16 and HPV-18 were 832-2781, 864-2813 and 914-2887 in the same sequences, respectively. The positions of E2 open reading frame (ORF) sequences corresponding to HPV-11, HPV-16 and HPV-18 were 2723-3826, 2755-3852 and 2817-3908 in the same sequences, respectively. The cells used for transient transfection were C-33A cells (ATCC HTB-31), and the culture medium was DMEM supplemented with Earle's salt, L-glutamine and 2% fetal bovine serum. In the experiment, the NanoLuc expression plasmid (5 ng/well) was co-transfected with the E1 and E2 expression plasmids of the homologous virus by using Lipofectamine LTXL and Plus Reagent (Invitrogen product, Thermo Fisher Scientific company). […] Meanwhile, the transfected cells were also seeded into duplicated dishes containing the same dilution of test drugs to assess cytotoxicity. All transfected monolayer cells were incubated at 37° C. for 48 hours. The NanoLuc activity expressed by the reporter plasmids was detected with Nano-Glo reagent (Promega company), the cell viability in cytotoxicity plates was measured with CellTiter-Glo reagent (Promega company), and the luminescence intensity was quantified on a microplate reader. The meanings of EC50, CC50, and SI50 were the same as those well-known in the art (where SI50=CC50/EC50), and were not described here.
(§2) J Med Chem. 2016; 59 (23): 10470-8. • Kachaeva, M. et al. In vitro activity of novel 1,3-oxazole derivatives against HPV. Ibnosina J Med Biomed Sci. 2017; 9 (4): 111-8.

[2] = system: Human Papillomavirus 11 (HPV11); experiment: Transient transfection HPV replication assay (E1/E2 plasmids, NanoLuc reporter), HPV11; type: cell-based; conditions: HPV11 strain HE611260.1, C-33 A cells; for EC50: 48 hours
Procedure: as §1, with “here. […]” for “here.”

[3] = system: Human Papillomavirus 18 (HPV18); experiment: Transient transfection HPV replication assay (E1/E2 plasmids, NanoLuc reporter), HPV18; type: cell-based; conditions: HPV18 strain KC470230.1, C-33 A cells; for EC50: 48 hours
Procedure: as §1, §2

[4] = system: Human Papillomavirus 16 (HPV16); experiment: Transient transfection HPV replication assay (E1/E2 plasmids, NanoLuc reporter), HPV16; type: cell-based
Procedure: as §1, §2

[5] = system: C-33A cells (ATCC HTB-31); experiment: in vitro
Procedure: as §1, §2

[6] = Human papillomavirus 16, C-33-A, 48 h
[7] = C-33 A cells transfected with HPV11 (HE611260.1) plasmids, 48 hours
[8] = C-33 A cells transfected with HPV16 (KP212151.1) plasmids, 48 hours
[9] = C-33 A cells transfected with HPV18 (KC470230.1) plasmids, 48 hours

In the case of `O=[N+]([O-])c1c(Br)c(Cl)c2cccnc2c1O` [Compound 114, 6-bromo-5-chloro-7-nitroquinolin-8-ol], the CC50 at 48 h [1] is reported as 30 µM and the EC50 ([2]; human papillomavirus 11) is reported as over 6 µM.

`O=[N+]([O-])c1cc(Cl)c2c(Cl)ccnc2c1O` [Compound 29, 4,5-dichloro-7-nitroquinolin-8-ol] gave a CC50 at 48 h [1] of 8.74 µM and an EC50 ([2]; human papillomavirus 11) of 2.96 µM.

For `O=[N+]([O-])c1cc(Cl)c2c(N3CCCCC3)ccnc2c1O` [Compound 36, 5-chloro-7-nitro-4-piperidinylquinolin-8-ol], the EC50 ([3]; human papillomavirus 18) was 0.27 µM, the EC50 [4, 6] was 0.69 µM and the EC50 ([2]; human papillomavirus 11) was under 0.05 µM.

Work on `O=[N+]([O-])c1ccc2c(C3CCCCC3)ccnc2c1O` [Compound 32, 4-cyclohexyl-7-nitroquinolin-8-ol] yielded an EC50 ([3]; human papillomavirus 18) of under 0.05 µM, an EC50 [4, 6] of 0.08 µM and an EC50 ([2]; human papillomavirus 11) of under 0.05 µM.

`Cc1ccnc2c(O)c(C#N)cc(Cl)c12` [Compound 131, 4-methyl-5-chloro-7-cyano-8-hydroxyquinoline] showed an EC50 ([3]; human papillomavirus 18) of 0.14 µM, an EC50 [4, 6] of 0.55 µM and an EC50 ([2]; human papillomavirus 11) of 0.53 µM.

For `Cc1cc(C#N)c(O)c2ncccc12` [Compound A1], the CC50 at 48 h ([1]; CC50) was 20.2 µM and the EC50 ([2]; human papillomavirus 11) was over 6 µM.

`N#Cc1c(Cl)c(Cl)c2cccnc2c1O` [Compound 133, 5,6-dichloro-7-cyano-8-hydroxyquinoline] gave a CC50 at 48 h ([1]; CC50) of 5.59 µM and an EC50 ([2]; human papillomavirus 11) of over 1.2 µM.

For `CNc1c([N+](=O)[O-])c(O)c2ncccc2c1Cl` [Compound 7, 5-chloro-6-(methylamino)-7-nitroquinolin-8-ol], the CC50 at 48 h ([1]; CC50) was 19.1 µM and the EC50 ([2]; human papillomavirus 11) was 5.22 µM.

“4-methoxy-7-nitroquinolin-8-ol [Example 21]” showed a CC50 [5] of 22.2 µM and an EC50 [2] of over 6 µM.

Compound `CN(C)C(=O)N1CCN(c2ccnc3c(O)c([N+](=O)[O-])ccc23)CC1` [Example 25, 4-(8-hydroxy-7-nitroquinolin-4-yl)-N,N-dimethylpiperazine-1-carboxamide] has an EC50 [3] of 0.1 µM, a CC50 [5, 7] of 3.36 µM and a CC50 [5, 8] of 7.53 µM. The CC50 [5, 9] was 5.88 µM, the EC50 ([4]; HPV16 strain KP212151.1, C-33 A cells, 48 hours, read-out: EC50) was 0.09 µM and the EC50 [2] was under 0.05 µM.

Compound `O=[N+]([O-])c1c(Cl)c(F)c2cccnc2c1O` [Compound 123, 6-chloro-5-fluoro-7-nitroquinolin-8-ol] has a CC50 at 48 h ([1]; CC50) of 29.8 µM and an EC50 ([2]; human papillomavirus 11) of over 6 µM.

In the case of `O=[N+]([O-])c1cc(Cl)c2c(C(F)(F)F)ccnc2c1O` [Compound 73, 5-chloro-7-nitro-4-(trifluoromethyl)-quinolin-8-ol hydrochloride], the CC50 at 48 h ([1]; CC50, C-33 A cells transfected with HPV11 (HE611260.1) plasmids, 48 hours) is reported as 8.5 µM, the CC50 at 48 h ([1]; CC50, C-33 A cells transfected with HPV16 (KP212151.1) plasmids, 48 hours) is reported as 8.32 µM and the EC50 [4, 6] is reported as 0.07 µM. For the same compound, the EC50 ([2]; human papillomavirus 11) was 0.06 µM.

Work on `O=[N+]([O-])c1ccc(O)c2ncccc12` [Compound A2, 5-nitro-8-hydroxyquinoline, reference compound] yielded an EC50 ([3]; human papillomavirus 18) of 1.01 µM and an EC50 ([2]; human papillomavirus 11) of 1.04 µM.

With `O=[N+]([O-])c1c(Cl)c(Cl)c2cccnc2c1O` [Compound 115, 5,6-dichloro-7-nitroquinolin-8-ol] the CC50 at 48 h ([1]; CC50) was 112 µM and the EC50 ([2]; human papillomavirus 11) was over 30 µM.

In the case of `Nc1nc2c(ncn2CCOCP(=O)(O)O)c(=O)[nH]1` [Positive control drug, 9-[2-(phosphonylmethoxy)ethyl]guanine, reference compound], the EC90 [3] is reported as over 150 µM, the CC50 [5, 7] is reported as over 150 µM and the CC50 [5, 8] is reported as over 150 µM. It also gave a CC50 [5, 9] of over 150 µM, an EC90 ([4]; HPV16 strain KP212151.1, C-33 A cells) of 2.3 µM and an EC90 [2] of 4.47 µM. For the same compound, the EC50 [2] was 1.26 µM and 1.03 µM.

`O=[N+]([O-])c1ccc2c(C(F)(F)F)ccnc2c1O` [Compound 62, 7-nitro-4-trifluoromethylquinolin-8-ol] gave a CC50 at 48 h ([1]; CC50) of 5.5 µM and an EC50 ([2]; human papillomavirus 11) of over 1.2 µM.

Compound `O=[N+]([O-])c1ccc2c(C3CCCCC3)ccnc2c1O` [Example 32, 4-cyclohexyl-7-nitroquinolin-8-ol] has a CC50 [5] of over 150 µM and an EC50 [2] of 3.99 µM.

In the case of `O=[N+]([O-])c1ccc2c(NC3COC3)ccnc2c1O` [Example 19, 7-nitro-4-(3-oxetanylamino)quinolin-8-ol], the CC50 [5, 7] is reported as 4 µM and the EC50 [2] is reported as 0.52 µM.

Compound `O=[N+]([O-])c1ccc2c(Cl)c(C3CC3)cnc2c1O` [Compound 74, 4-chloro-3-cyclopropyl-7-nitroquinolin-8-ol] has an EC50 ([3]; human papillomavirus 18) of under 0.05 µM, a CC50 at 48 h ([1]; CC50) of 34.4 µM and an EC50 [4, 6] of 0.15 µM. For the same compound, the EC50 ([2]; human papillomavirus 11) was 0.57 µM.

— patent publication US20260191850A1, “USE OF 8-HYDROXYQUINOLINE DERIVATIVE” (Jiangsu Yahong Meditech Co., Ltd., priority 2022, published 2026)
